Test results reported in patent US9238016B2, “Antibiotic composition comprising flufenamic acid as an active ingredient” (SUNGKYUNKWAN UNIVERSITY FOUNDATION FOR CORPORATE …, priority 2010, dated 2016).
Converted amounts (≈) assume the structure as drawn.

What was measured:
[1] = tested on: MRSA; assay: MICs of antibiotics against MRSA in the presence of flufenamic acid (synergy); type: cell-based, Staphylococcus aureus; details: for susceptibility of MRSA to the antibiotic in the presence of FLF: with FLF (FIG. 4B, 4C)
[2] = tested on: S. aureus MSSA; assay: MIC by broth dilution method; type: cell-based; details: Staphylococcus aureus, 24 hours of incubation
[3] = tested on: S. aureus MRSA; assay: MIC by broth dilution method; type: cell-based, Staphylococcus aureus
Experimental: (§1) FLF was assayed for inhibitory activity against Methicillin-resistant staphylococcus aureus (MRSA). In this regard, Methicillin-resistant Staphylococcus aureus (MRSA) was cultured overnight and 200-fold diluted in 2 mL of LB containing various concentrations of FLF. After additional incubation at 37° C. for 8 hours, cell densities were measured by recoding OD at 600 nm.
(§2) FLF was examined for inhibitory activity against various bacteria. Staphylococcus epidermidis, Bacillus subtilis, Listeria monocytogenes and Enterococcus faecium were cultured overnight and 200-fold diluted in 2 mL of LB containing various concentrations of FLF. Cell densities were determined by measuring the OD at 600 nm after incubation at 37° C. for 8 hours. The MICs of FLF were determined using a broth dilution method. In brief, bacteria were inoculated into LB containing serially diluted concentrations of FLF in 96-well microplates. After 24 hours of incubation, bacterial growth was examined. Antibacterial activity of FLF was tested over various Gram-positive bacteria including Staphylococcus epidermidis, Bacillus subtilis, Listeria monocytogenes, and Enterococcus faecium.

[4] = tested on: B. subtilis; assay: MIC by broth dilution method; type: cell-based; details: Bacillus subtilis, 24 hours of incubation
Experimental: as §2

[5] = tested on: E. faecium; assay: MIC by broth dilution method; type: cell-based; details: Enterococcus faecium, 24 hours of incubation
Experimental: as §2

[6] = tested on: L. monocytogenes; assay: MIC by broth dilution method; type: cell-based; details: Listeria monocytogenes, 24 hours of incubation
Experimental: as §2

[7] = tested on: S. epidermidis; assay: MIC by broth dilution method; type: cell-based; details: Staphylococcus epidermidis, 24 hours of incubation
Experimental: as §2

[8] = tested on: Methicillin-resistant Staphylococcus aureus (MRSA); assay: Growth inhibition, cell density OD 600 nm; type: cell-based; details: 8 h, read-out: growth inhibited
Experimental: as §1

[9] = tested on: Bacillus subtilis; assay: Growth inhibition, cell density OD 600 nm; type: cell-based; details: 20~40 μg/mL FLF, 8 hours
Experimental: as §2

[10] = tested on: Enterococcus faecium; assay: Growth inhibition, cell density OD 600 nm; type: cell-based; details: 20~40 μg/mL FLF, 8 hours
Experimental: as §2

[11] = tested on: Listeria monocytogenes; assay: Growth inhibition, cell density OD 600 nm; type: cell-based; details: 20~40 μg/mL FLF, 8 hours
Experimental: as §2

[12] = tested on: Staphylococcus epidermidis; assay: Growth inhibition, cell density OD 600 nm; type: cell-based; details: 20~40 μg/mL FLF, 8 hours
Experimental: as §2

[13] = target: T1, SA1606 (Staphylococcus aureus, UniProt Q2FXE2); assay: Binding affinity by isothermal titration calorimetry; set-up: species or system S. aureus; details: ITC, 10 mM HEPES pH 7.0, 3% DMSO; read-out: dissociation constant (Kd)
T1 sequence (Q2FXE2 1-277 N135K/V136A/R184H/A227G/T230I/K274T): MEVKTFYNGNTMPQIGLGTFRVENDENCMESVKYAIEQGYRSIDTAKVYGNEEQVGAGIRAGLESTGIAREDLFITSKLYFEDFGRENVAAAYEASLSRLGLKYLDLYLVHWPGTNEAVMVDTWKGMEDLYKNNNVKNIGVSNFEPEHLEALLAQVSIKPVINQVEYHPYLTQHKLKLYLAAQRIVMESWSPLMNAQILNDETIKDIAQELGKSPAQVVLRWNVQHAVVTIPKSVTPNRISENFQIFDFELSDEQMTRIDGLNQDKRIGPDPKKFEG
From the text: (§3) Genes of SA1606 (GenBank number: BAB42874) and […] (GenBank number: BAB43292) were amplified using PCR with the genomic DNA of S. aureus N315 serving as a template. PCR primers were 5′-[…] […]-3′ (SEQ ID NO: 4) and 5′-[…]-3′ (SEQ ID NO: 5) for SA1606, and 5′-[…]-3′ (SEQ ID NO: 6) and 5′-5 […]-3′ (SEQ ID NO: 7) for SA2001. Ncol and Xhol restriction sites were incorporated into the forward primer sequences and the reverse primer sequences, respectively. The PCR products were digested with Ncol and Xhol and inserted into Ncol/Xhol-digested pET28a vectors (Novagen). The DNAs 10 thus ligated were transformed into E. coli BL21 DE3 (Invitrogen). Coding sequences of the cloned genes SA1606 and SA2001 were confirmed by nucleotide sequencing. Recombinant SA1606 and SA2001 with histidine tag at the C-terminus were expressed in E. coli and then loaded into Hi-Trap chelating 15 columns (GE Healthcare) equilibrated with buffer A (20 mM HEPES, pH 7.5, 50 mM imadazole and 500 mM NaCl). […]
(§4) Binding affinity for SA1606 and SA2001 of FLF was measured using VP-ITC Micro calorimeter (MicroCal Inc). […] Thereafter, the affinity of FLF for the proteins were calculated on the basis of the heat generated upon the binding of FLF to the proteins. The data was analyzed with ORIGIN software (MicroCal Inc).

[14] = target: T2, SA2001 (Staphylococcus aureus, UniProt Q2FW57, N2D); assay: as above; set-up: species or system S. aureus; details: ITC, 10 mM HEPES pH 7.0, 3% DMSO; read-out: dissociation constant (Kd)
T2 sequence (Q2FW57 1-279 N2D): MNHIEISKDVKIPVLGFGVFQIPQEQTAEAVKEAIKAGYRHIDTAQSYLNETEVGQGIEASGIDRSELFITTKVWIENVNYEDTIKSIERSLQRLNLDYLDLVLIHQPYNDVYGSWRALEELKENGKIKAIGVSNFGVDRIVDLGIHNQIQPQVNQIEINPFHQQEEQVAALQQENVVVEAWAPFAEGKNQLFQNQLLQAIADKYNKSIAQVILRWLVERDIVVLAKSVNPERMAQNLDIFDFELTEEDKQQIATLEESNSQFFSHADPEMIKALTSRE
From the text: as §3, §4

[15] = target: T1, SA1606; assay: Aldo-keto reductase enzymatic assay (NADPH absorbance 340 nm, methylglyoxal); type: biochemical, S. aureus; details: 0.5 mM NADPH, 5 mM methylglyoxal, 10 μM enzyme, pH 7.0
Experimental: (§5) Aldo-keto reductase (AKR) activity was measured to examine whether FLF inhibits the enzymatic activities of SA1606 and SA2001 on the basis of the data of Example 8 showing the binding of FLF to SA16006 and SA2001. On the whole, bacterial AKR catalyzes the reduction of various chemicals with NADPH. […] As is evidenced in Example 6, SA1606 and SA2001 have structural and functional similarity with the human aldo-keto reductase AKR1C3 and the bacterial aldo-keto reductase DkgA. Thus, the enzymatic activity of […] was measured to analyze the inhibitory activity of FLF. The reaction for evaluating enzymatic activity was comprised of 0.5 mM NADPH, 5 mM methylglyoxal and 10 μM aldo-keto reductase in 50 mM sodium phosphate buffer, pH 7.0. Absorbance at 340 nm of the reaction was measured for 10 min to calculate the consumption of NADPH.

[16] = target: T3, SA2001 (Staphylococcus aureus, UniProt Q2FW57); assay: as above; type: biochemical, S. aureus; details: 0.5 mM NADPH, 5 mM methylglyoxal, 10 μM enzyme, pH 7.0
T3 sequence (Q2FW57 1-279 N2D): T2 sequence (Q2FW57 1-279 N2D)
Experimental: as §5

[17] = tested on: MRSA; assay: Screening of Prestwick chemical library for inhibitory activity against bacteria; type: cell-based, S. aureus; details: 100 μg/mL, 24 hours
Experimental: To screen compounds having inhibitory activity against bacteria, MRSA was 200-fold diluted in 0.2 mL of LB in 96-well microplates and cultured overnight at 37° C. with agitation at 180 RPM. Prestwick chemical library was added at a final concentration of 100 μg/mL per well. The microplates were incubated at 37° C. for 24 hours with agitation at 180 RPM and the optical density at 600 nm was measured.

Structure (SMILES): CC(=O)OCC1=C(C(=O)O)N2C(=O)[C@@H](NC(=O)Cc3cccs3)[C@H]2SC1 [Cephalothin]
- MICs of antibiotic against MRSA ([1]; 10 μg/ml FLF): 128 µg/mL
- MICs of antibiotic against MRSA ([1]; 20 μg/ml FLF): 64 µg/mL
- MICs of antibiotic against MRSA ([1]; 30 μg/ml FLF): 16 µg/mL
- MICs of antibiotic against MRSA ([1]; 40 μg/ml FLF): 4 µg/mL
- MICs of antibiotic against MRSA ([1]; No FLF): 128 µg/mL
- susceptibility of MRSA to the antibiotic in the presence of FLF [1]: far more susceptible

Structure (SMILES): O=C(O)c1ccccc1Nc1cccc(C(F)(F)F)c1 [FLF, flufenamic acid]
- MIC [2]: 64 µg/mL (≈ 228 µM)
- MICs ([3]; S. aureus MRSA, 24 hours of incubation): 64 µg/mL
- MIC ([3]; Staphylococcus aureus, MRSA, 24 h, read-out: MICs): 64 µg/mL (≈ 228 µM)
- MIC [4]: 32 µg/mL (≈ 114 µM)
- MIC [5]: 32 µg/mL (≈ 114 µM)
- MIC [6]: 32 µg/mL (≈ 114 µM)
- MIC [7]: 64 µg/mL (≈ 228 µM)
- inhibition at 40 µg/mL [8]: 90%
- growth inhibited [9]: 90%
- growth inhibited [10]: 90%
- growth inhibited [11]: 90%
- growth inhibited [12]: 90%
- synergistic effect with classical antibiotics ([1]; FLF in combination with Norfloxacin, Oxacillin or Cephalothin, MRSA): synergistically inhibited
- Kd [13]: 14.5 µM
- Kd [14]: 38.1 µM
- enzymatic activity (reduction of methylglyoxal with NADPH) in the presence of FLF [15]: inhibited
- enzymatic activity (reduction of methylglyoxal with NADPH) in the presence of FLF [16]: inhibited
- inhibitory activity against bacteria (OD 600 nm) in library screen [17]: most inhibitory

Structure (SMILES): CCn1cc(C(=O)O)c(=O)c2cc(F)c(N3CCNCC3)cc21 [Norfloxacin]
- MICs of antibiotic against MRSA ([1]; 10 μg/ml FLF): 64 µg/mL
- MICs of antibiotic against MRSA ([1]; 20 μg/ml FLF): 32 µg/mL
- MICs of antibiotic against MRSA ([1]; 30 μg/ml FLF): 16 µg/mL
- MICs of antibiotic against MRSA ([1]; 40 μg/ml FLF): 8 µg/mL
- MICs of antibiotic against MRSA ([1]; No FLF): 128 µg/mL

Structure (SMILES): Cc1onc(-c2ccccc2)c1C(=O)N[C@@H]1C(=O)N2[C@@H]1SC(C)(C)[C@@H]2C(=O)O [Oxacillin]
- MICs of antibiotic against MRSA ([1]; 10 μg/ml FLF): 256 µg/mL
- MICs of antibiotic against MRSA ([1]; 30 μg/ml FLF): 32 µg/mL
- MICs of antibiotic against MRSA ([1]; 40 μg/ml FLF): 8 µg/mL
- MICs of antibiotic against MRSA ([1]; No FLF): >256 µg/mL
- susceptibility of MRSA to the antibiotic in the presence of FLF [1]: far more susceptible
